# Assay results taken from ChEMBL document CHEMBL1201862, “PubChem BioAssay data set” (2004).
# The source made the active and inactive calls.
# Columns and labels:
# Beta-galactosidase [1] = target: T1, Beta-galactosidase (Escherichia coli, UniProt Q8VNN2); experiment: PubChem AID 485352; format: functional
# [2] = target: T2, Type-1 angiotensin II receptor (Homo sapiens, UniProt P30556); experiment: AT1 receptor antagonists, dose response, selectivity assay for APJ receptor antagonist project, cell-based, uHTS hits (AID 463214); format: functional;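 also: antagonist potency against angiotensin II stimulated AT1 response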
# T2 sequence (P30556 whole entry): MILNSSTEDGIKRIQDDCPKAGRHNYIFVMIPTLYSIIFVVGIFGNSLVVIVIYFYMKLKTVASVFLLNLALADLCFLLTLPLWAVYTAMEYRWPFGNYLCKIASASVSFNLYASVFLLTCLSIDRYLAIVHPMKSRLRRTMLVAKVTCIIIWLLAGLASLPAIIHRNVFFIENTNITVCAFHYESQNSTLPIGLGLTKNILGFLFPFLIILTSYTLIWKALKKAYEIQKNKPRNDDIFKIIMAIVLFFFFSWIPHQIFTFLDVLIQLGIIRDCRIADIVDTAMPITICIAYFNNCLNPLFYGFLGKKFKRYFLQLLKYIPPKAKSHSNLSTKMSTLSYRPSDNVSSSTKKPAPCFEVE
# [3] = target: T3, Kappa-type opioid receptor (Homo sapiens, UniProt P41145); format: functional
# Beta-galactosidase [4] = target: T1, Beta-galactosidase; format: functional
# [5] = target: T3, Kappa-type opioid receptor; format: functional; remark: listed apart in the source
# [6] = THP-1 cell cytotoxicity, dose response, cytotoxicity control for non-replicating M. tuberculosis project (AID 489025); format: functional
# [7] = HepG2 cell cytotoxicity, dose response, cytotoxicity control for non-replicating M. tuberculosis project (AID 489018); format: functional; settings: Mycobacterium tuberculosis
# [8] = Vero E6 cell cytotoxicity, dose response, cytotoxicity control for non-replicating M. tuberculosis project, secondary assay (AID 492998); format: functional, VeroE6; settings: Vero C1008
# Nonstructural protein 1 = Nonstructural protein 1 (Influenza A virus, UniProt Q194T2); format: functional, Influenza A virus (A/California/07/2009(H1N1))
# [9] = target: T4, Microphthalmia-associated transcription factor (Homo sapiens, UniProt O75030); experiment: TRPM1 promoter luciferase signal decrease, dose response, MITF inhibitor project, cell-based, SK-MEL-5, cherry-picked, set 3 (AID 493073); format: functional
# T4 sequence (O75030 whole entry): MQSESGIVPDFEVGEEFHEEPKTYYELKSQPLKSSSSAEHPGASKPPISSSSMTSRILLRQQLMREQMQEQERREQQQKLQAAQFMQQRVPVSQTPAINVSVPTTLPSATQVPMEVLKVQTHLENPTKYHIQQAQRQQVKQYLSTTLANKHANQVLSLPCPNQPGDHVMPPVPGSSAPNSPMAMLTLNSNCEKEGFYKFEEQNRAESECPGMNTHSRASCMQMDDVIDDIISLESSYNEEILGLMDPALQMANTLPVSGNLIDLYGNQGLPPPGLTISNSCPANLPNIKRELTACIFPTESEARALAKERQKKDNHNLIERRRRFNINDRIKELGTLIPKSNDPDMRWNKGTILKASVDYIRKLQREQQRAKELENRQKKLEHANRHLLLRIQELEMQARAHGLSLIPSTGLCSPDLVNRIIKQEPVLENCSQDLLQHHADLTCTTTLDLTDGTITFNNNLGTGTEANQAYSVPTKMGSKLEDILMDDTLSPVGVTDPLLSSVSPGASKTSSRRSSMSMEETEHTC
# cells = format: functional
# INS1 = experiment: beta cell apoptosis inhibitors, cytokine rescue, dose response, luminescence, retest (AID 449756); format: functional, cell-based; settings: Rattus norvegicus;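 also: cell death triggered by IL-1 beta plus TNF-alpha plus IFN-gamma mixture; protective hits raise ATP signal compared with cytokine alone wells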
# [10] = THP-1 cell cytotoxicity, dose response, cytotoxicity control for Vif-APOBEC3G degradation inhibitor project, THP-1 cells (AID 1117359); format: functional; settings: Human immunodeficiency virus 1, THP-1
# Protein Rev = Protein Rev (Human immunodeficiency virus type 1 group M subtype B (isolate HXB2)(HIV-1), UniProt P04618); experiment: inhibitors of Rev binding to RRE RNA, dose response, biochemical, fluorescence polarization, HIV-1 (AID 434976); set-up: species or system Human immunodeficiency virus 1
# [11] = target: Female germline-specific tumor suppressor gld-1 (Caenorhabditis elegans, UniProt Q17339); experiment: inhibitors of GLD-1 binding to TGE RNA, dose response, biochemical, fluorescence polarization, C. elegans (AID 2802);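 also: fluorescence polarization of labeled TGE RNA bound by purified gld-1 protein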
# [12] = target: T5, RNA-binding protein pos-1 (Caenorhabditis elegans, UniProt G5EF15); experiment: inhibitors of POS-1/mex-3 RNA binding, dose response, biochemical, fluorescence polarization (AID 1964);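 also: purified POS-1 fused to maltose binding protein made in E. coli; potency of compounds blocking POS-1 binding to fluorescent RNA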
# T5 sequence (G5EF15 whole entry): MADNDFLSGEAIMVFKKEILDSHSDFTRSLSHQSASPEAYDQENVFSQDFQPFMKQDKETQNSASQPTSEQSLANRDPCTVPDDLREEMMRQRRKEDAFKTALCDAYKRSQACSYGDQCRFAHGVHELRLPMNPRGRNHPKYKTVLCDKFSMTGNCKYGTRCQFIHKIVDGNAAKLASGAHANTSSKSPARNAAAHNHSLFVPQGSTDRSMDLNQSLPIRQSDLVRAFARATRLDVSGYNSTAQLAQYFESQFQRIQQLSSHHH
# [13] = target: T6, Zinc finger protein mex-5 (Caenorhabditis elegans, UniProt Q9XUB2); experiment: MEX-5/TCR-2 RNA interaction inhibitors, dose response, biochemical, C. elegans, fluorescence polarization (AID 1960)
# T6 sequence (Q9XUB2 whole entry): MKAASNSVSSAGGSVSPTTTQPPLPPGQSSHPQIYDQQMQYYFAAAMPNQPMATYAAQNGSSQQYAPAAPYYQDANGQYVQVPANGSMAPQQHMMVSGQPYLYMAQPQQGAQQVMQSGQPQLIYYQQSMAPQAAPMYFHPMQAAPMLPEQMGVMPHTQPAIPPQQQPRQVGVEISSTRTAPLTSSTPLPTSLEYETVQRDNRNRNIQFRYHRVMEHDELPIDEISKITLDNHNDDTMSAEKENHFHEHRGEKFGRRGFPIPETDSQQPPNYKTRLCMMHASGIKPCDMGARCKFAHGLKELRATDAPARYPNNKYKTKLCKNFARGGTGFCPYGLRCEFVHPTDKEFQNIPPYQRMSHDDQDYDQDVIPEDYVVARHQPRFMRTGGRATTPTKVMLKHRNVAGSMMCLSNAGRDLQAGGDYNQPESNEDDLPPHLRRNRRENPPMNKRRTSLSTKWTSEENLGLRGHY
# [14] = target: T7, Long-chain-fatty-acid--AMP ligase FadD28 (Mycobacterium tuberculosis, UniProt P9WQ59); experiment: Fluorescence polarization aasay to screen for inhibitors that compete for the binding of FadD28 to a bisubstrate Measured in Biochemical System Using Plate Reader - 2147-01_Inhibitor_Dose_CherryPick_Activity.; format: functional, Mycobacterium tuberculosis H37Rv
# T7 sequence (P9WQ59 whole entry): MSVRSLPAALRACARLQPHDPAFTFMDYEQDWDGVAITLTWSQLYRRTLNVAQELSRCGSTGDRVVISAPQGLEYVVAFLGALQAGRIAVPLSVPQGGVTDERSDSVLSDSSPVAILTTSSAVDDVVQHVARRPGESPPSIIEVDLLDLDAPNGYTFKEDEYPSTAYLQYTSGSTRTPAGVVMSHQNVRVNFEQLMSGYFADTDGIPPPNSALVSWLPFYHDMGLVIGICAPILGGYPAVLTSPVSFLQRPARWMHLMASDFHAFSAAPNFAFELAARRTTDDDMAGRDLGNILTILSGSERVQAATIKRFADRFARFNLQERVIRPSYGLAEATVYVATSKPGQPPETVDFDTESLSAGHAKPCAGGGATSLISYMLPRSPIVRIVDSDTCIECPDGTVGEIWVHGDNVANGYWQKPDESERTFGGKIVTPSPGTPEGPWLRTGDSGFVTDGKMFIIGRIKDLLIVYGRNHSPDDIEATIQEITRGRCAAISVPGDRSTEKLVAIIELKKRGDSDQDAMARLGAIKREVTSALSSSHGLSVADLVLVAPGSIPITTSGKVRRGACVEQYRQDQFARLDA
# Protein S100-A4 = Protein S100-A4 (Homo sapiens, UniProt P26447); experiment: S100A4-myosin IIA binding inhibitor potency, dose response, biochemical, fluorescence polarization, cherry-picked hits (AID 687001); format: functional
# [15] = target: T8, Histone-lysine N-methyltransferase NSD2 (Homo sapiens, UniProt O96028); format: biochemical
# T8 sequence (O96028 whole entry): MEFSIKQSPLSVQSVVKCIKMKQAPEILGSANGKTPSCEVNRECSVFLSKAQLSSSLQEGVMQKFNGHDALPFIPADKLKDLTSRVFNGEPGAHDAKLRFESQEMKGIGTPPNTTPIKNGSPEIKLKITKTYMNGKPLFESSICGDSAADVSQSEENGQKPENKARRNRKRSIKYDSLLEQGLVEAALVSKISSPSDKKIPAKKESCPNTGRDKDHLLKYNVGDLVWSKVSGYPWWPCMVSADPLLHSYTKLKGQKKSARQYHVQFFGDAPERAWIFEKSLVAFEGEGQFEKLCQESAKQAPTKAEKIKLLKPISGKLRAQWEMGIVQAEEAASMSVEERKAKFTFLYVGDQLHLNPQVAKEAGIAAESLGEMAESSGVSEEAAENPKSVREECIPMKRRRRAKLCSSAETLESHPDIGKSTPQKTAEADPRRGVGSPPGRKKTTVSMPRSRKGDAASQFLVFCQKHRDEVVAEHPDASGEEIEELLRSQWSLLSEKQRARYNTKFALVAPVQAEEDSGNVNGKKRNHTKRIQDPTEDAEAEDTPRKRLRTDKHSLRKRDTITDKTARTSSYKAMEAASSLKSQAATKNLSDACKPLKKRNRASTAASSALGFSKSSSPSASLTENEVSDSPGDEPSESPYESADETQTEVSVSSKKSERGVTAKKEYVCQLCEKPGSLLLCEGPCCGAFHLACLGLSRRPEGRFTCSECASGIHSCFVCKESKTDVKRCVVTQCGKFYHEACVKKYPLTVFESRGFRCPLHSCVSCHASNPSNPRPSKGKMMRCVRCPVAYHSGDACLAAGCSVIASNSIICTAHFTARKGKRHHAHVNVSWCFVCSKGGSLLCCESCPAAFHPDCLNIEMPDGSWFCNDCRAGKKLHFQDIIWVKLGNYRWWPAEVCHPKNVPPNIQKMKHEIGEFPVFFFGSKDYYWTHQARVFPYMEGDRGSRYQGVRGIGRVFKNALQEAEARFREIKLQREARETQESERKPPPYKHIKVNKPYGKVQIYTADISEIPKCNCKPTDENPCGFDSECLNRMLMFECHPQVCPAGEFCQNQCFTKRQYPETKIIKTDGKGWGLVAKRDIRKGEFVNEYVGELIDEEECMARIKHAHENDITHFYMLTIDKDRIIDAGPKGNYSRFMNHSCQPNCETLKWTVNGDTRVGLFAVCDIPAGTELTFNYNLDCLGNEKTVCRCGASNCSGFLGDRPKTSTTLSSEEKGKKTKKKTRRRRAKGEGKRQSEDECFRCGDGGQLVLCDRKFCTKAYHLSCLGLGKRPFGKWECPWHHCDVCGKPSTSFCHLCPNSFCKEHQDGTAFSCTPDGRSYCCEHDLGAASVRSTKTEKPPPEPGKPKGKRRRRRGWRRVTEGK
# Fibrinogen beta chain [16] = target: T9, Fibrinogen beta chain (Homo sapiens, UniProt P02675); experiment: Fluorescence polarization-based biochemical high throughput dose response assay to identify inhibitors that disrupt the binding of a cyclic peptide (Tn6) to the fibrin proteolytic product D-Dimer and fragment E complex [DD(E )].
# Fibrinogen beta chain [17] = target: T9, Fibrinogen beta chain; experiment: Fluorescence polarization-based biochemical high throughput dose response assay to identify inhibitors that disrupt the binding of a cyclic peptide (Tn7) to the fibrin proteolytic product D-Dimer and fragment E complex [DD(E )].
# T1 sequence (Q8VNN2 whole entry): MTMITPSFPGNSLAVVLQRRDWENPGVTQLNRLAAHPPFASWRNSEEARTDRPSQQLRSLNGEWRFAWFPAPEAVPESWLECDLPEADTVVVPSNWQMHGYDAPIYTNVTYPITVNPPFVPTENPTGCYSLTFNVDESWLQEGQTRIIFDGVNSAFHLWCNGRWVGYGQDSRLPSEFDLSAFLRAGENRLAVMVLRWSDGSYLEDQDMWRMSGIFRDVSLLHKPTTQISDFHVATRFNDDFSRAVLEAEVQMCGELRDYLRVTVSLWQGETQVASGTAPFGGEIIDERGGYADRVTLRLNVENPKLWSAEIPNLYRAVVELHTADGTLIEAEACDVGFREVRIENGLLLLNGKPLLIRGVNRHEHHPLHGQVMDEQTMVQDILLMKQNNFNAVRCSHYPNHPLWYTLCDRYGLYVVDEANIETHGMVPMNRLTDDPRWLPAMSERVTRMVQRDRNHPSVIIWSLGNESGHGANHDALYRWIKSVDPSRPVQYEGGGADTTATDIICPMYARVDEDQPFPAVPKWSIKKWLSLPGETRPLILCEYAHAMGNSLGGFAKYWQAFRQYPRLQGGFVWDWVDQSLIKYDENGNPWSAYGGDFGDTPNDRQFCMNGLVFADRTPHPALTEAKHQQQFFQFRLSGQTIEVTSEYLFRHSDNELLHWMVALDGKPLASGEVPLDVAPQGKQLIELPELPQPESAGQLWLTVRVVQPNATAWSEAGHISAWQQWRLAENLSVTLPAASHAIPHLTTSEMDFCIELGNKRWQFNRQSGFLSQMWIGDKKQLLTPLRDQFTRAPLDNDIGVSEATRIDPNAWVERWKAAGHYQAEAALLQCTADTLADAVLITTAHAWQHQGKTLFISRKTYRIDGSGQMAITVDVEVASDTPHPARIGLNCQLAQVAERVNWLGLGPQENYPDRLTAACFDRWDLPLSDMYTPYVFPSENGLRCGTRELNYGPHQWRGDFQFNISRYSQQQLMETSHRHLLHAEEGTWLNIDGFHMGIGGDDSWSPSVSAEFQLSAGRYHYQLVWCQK
# T9 sequence (P02675 whole entry, the tested form may be a part): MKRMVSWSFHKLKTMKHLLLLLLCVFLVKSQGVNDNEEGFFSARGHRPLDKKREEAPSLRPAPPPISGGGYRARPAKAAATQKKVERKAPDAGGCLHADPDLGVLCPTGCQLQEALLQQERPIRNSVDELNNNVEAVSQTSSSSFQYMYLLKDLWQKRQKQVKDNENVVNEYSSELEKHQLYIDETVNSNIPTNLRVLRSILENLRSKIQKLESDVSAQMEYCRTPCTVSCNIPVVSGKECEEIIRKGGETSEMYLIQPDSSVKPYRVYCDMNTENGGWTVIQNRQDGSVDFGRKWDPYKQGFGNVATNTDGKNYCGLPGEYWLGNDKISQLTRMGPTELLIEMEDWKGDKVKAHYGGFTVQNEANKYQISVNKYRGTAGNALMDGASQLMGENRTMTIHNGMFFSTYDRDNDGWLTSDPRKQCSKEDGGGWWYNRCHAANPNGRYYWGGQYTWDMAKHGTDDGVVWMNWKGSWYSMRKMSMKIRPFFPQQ
# T3 sequence (P41145 whole entry): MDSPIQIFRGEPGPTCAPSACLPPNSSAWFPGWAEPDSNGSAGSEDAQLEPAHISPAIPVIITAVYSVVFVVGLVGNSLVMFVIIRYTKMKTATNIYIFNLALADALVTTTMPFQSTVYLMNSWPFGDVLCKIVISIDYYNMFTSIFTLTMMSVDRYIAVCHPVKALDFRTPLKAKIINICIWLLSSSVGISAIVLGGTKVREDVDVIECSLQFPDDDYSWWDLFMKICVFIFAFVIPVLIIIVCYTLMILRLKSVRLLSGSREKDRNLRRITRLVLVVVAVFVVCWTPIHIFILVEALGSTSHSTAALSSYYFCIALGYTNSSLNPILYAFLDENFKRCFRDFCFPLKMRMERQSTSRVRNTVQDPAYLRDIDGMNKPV
# Sequence of Protein S100-A4 (P26447 whole entry): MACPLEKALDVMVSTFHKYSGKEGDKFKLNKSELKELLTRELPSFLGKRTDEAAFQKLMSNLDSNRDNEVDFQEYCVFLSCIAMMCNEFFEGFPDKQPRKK
# Sequence of Protein Rev (P04618 whole entry): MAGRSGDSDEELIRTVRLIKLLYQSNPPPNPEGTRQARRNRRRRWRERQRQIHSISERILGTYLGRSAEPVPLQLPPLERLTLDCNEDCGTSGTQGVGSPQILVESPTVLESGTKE
# Sequence of Nonstructural protein 1 (Q194T2 whole entry): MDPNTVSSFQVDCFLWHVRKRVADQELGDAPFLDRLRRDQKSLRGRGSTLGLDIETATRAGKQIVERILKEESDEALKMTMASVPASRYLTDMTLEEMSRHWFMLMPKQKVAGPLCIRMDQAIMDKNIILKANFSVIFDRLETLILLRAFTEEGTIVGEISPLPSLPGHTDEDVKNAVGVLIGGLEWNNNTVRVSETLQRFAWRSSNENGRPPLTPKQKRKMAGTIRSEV
# Sequence of Female germline-specific tumor suppressor gld-1 (Q17339 whole entry, the tested form may be a part): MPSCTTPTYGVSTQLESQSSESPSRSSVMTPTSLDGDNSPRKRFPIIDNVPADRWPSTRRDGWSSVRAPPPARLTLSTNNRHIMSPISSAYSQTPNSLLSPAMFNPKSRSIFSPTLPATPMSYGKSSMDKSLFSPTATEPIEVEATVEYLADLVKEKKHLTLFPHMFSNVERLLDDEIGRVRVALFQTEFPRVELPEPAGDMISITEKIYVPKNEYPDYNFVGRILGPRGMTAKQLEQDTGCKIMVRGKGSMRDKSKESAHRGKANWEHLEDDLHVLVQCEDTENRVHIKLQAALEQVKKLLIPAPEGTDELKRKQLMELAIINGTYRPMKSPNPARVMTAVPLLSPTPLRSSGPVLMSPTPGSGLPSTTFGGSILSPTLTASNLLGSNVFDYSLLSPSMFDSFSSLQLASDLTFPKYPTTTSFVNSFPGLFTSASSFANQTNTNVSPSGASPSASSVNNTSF
smiles,measurement,setting,value
C/C(=N\NC(=O)C(C)Oc1ccc([N+](=O)[O-])cc1)c1ccccn1 (configuration not stated),EC50,Beta-galactosidase [1],> 40 µM (inactive)
same,IC50,[2],9.48 µM (active)
same,IC50,[3],3.19 µM (active)
same,EC50,Beta-galactosidase [4],> 31.5 µM (inactive)
same,IC50,[5],> 32 µM
same,CC50,[6],1.54 µM (active)
same,CC50,[7],8.26 µM (active)
same,CC50,[8],3.54 µM (active)
same,IC50,Nonstructural protein 1,6.88 µM (active)
same,AC50,[9],2.38 µM (active)
same,IC50,cells,6.28 µM (active)
same,AC50,INS1,1.12 µM (active)
same,CC50,[10],1.8 µM (active)
Cn1c(=O)cc2c3c(c(N4CCCCC4)ccc31)C(=O)c1ccccc1-2,IC50,Protein Rev,14.2 µM (not active)
same,IC50,[11],4.96 µM (active)
same,EC50,[12],> 300 µM (inconclusive)
same,EC50,[13],25.9 µM (active)
same,AC50,[14],11.8 µM (active)
same,AC50,Protein S100-A4,1.72 µM (active)
same,AC50,[15],12.3 µM (active)
same,IC50,Fibrinogen beta chain [16],> 27.8 µM (inactive)
same,IC50,Fibrinogen beta chain [17],> 83.3 µM (inactive)
